From patent US8242078B2, “Therapeutics to inhibit MLL-menin interaction for treating leukemia” (The University of Chicago, priority 2006, dated 2012)
“Also recorded” adds a separate entry of the source.

How the values were obtained:
Leukemia cell lines = experiment: Relative growth inhibition of TAT-MLL vs TAT-MLL mutant (MTS cell proliferation assay); format: cell-based
[1] = biological target: T1, interaction of transfected MLL with endogenous menin (Homo sapiens, UniProt O00255); experiment: Disruption of binding of transfected FLAG-tagged MLL 1-330 to endogenous menin (anti-FLAG immunoprecipitation, anti-menin Western blot); settings: each peptide tested at 10, 20, and 30 μM
T1 construct: endogenous in cells; host or cells: 293 cells (lysate; cells transfected with FLAG-MLL 1-330)
T1 sequence (O00255 1-610): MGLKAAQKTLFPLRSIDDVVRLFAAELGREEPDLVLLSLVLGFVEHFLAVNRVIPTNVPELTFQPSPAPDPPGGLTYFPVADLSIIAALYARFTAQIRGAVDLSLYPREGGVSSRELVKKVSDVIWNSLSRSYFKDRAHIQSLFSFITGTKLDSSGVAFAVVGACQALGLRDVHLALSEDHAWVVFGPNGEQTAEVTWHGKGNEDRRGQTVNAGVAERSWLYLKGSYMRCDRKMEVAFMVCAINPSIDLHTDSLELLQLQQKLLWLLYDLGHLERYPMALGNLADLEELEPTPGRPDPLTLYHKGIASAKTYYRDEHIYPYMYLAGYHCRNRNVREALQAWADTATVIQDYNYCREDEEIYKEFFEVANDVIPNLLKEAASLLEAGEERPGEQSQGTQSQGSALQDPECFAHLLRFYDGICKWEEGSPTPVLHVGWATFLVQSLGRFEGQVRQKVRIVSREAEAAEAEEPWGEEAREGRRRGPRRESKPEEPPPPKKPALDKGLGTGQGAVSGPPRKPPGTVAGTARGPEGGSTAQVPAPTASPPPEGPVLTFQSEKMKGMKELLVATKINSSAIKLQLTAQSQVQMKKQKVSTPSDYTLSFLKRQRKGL
Protocol: To determine the precise domain that mediates the binding of MLL to menin, a series of peptides from the N-terminus of MLL were synthesized. To assess disruption of binding of transfected MLL to endogenous menin, a FLAG-tagged MLL 1-330 construct was transfected into 293 cells and the cell lysates were incubated with a series of peptides listed below or with water as a control. Cell lysates were immunoprecipitated with anti-FLAG antibody (Sigma), separated by SDS-PAGE and blotted with an anti-menin antibody (Bethyl Laboratories Inc, or Santa-Cruz). The amino acid numbers from the N-terminus of MLL are indicated below (preceding the amino acid sequence) for the peptides analyzed for their ability to disrupt the interaction of MLL and menin.
Conditional inactivation of menin results in the reversal of the transforming properties of MLL fusion proteins. A high affinity menin binding domain has been localized to the N-terminal residues of MLL, and deletion of residues 6 through 10 of MLL prevents MLL-ELL from transforming hematopoietic progenitor cells. To target the MLL-menin interaction, a series of peptides were developed for the potential to block the interaction of menin with MLL. To establish the activity of these peptides, lysates of cells transfected with FLAG-tagged N-terminal MLL sequences were examined. The lysates were immunoprecipitated with a FLAG antibody, incubated with either an MLL peptide or a control scrambled peptide, and then blotted with an anti-menin antibody. […] To examine the activity of the TAT-MLL peptide, mouse and human leukemia cell lines were treated with the TAT-MLL peptide. […] (#TIB-202, American Type Culture Collection, Manassas, Va.).

RKKRRQRRR-GG-CRWRFGARGG (SEQ ID NO: 16) (RKKRRQRRRGGCRWRFGARGG) [TAT-MLL-G 5-14, TAT-MLL 5-14 peptide with prolines replaced by glycines, used as a control, reference compound]
effect on proliferation, TAT-MLL vs TAT-MLL mutant (FIG. 6) (Leukemia cell lines): significantly decreases the effect of the peptide on proliferation | inhibition of the binding of transfected MLL 1-330 to endogenous menin (Western blot, FIG. 2) [1]: did not inhibit the binding of MLL1-330 with menin; also recorded: did not block the interaction of MLL with menin
